The text below walks through data of patent publication US7842671B1, “Peptidomimetic inhibitors of STAT activity and uses thereof” (University of South Florida, priority 2003, dated 2010).

Read-outs that look alike come from different tables or passages of the source. Square brackets hold non-standard residues; d marks the D form. Peptide text beside a SMILES is read from it. * marks the point of attachment. pY = N[CH](Cc1ccc(OP(=O)(O)O)cc1)C(=O)O; Nicotinoyl = O=C(c1cccnc1)*; 3Abz = Nc1cccc(C(=O)O)c1; Isobutyryl = CC(C)C(=O)*; 2Abz = Nc1ccccc1C(=O)O

In one test the target is Stat3 (Mus musculus, UniProt P42227). Nature of the test: EMSA of Stat3 DNA-binding activity in nuclear extracts (hSIE probe). It is filed as biochemical. The conditions noted are these: for effect on Stat3 DNA-binding activity in vitro (in words): nuclear extracts; for selectivity among Stat3, Stat1 and Stat5 (in words): EMSA IC50 comparison. Details: nuclear extracts (prepared from epidermal growth factor (EGF)-stimulated fibroblasts); endogenous in cells; host or cells: NIH3T3 fibroblasts stimulated with EGF. The procedure: (§1) Nuclear extract preparation and gel shift assays. Nuclear extracts were prepared from cell lines and used for electrophoretic mobility shift assay (EMSA) as previously described (Garcia, R. et al. (1997); Yu, C. L. et al. (1995); Turkson, J. et al. (1998)). In some cases, cells were pre-treated with peptidomimetics for the indicated times (12-48 h) prior to harvesting for nuclear extract preparation. In other studies, nuclear extracts were pre-incubated with peptidomimetics for 30 min at room temperature prior to incubation with radiolabeled probe. The ^32P-radiolabeled oligonucleotide probes used are hSIE (high affinity sis-inducible element, m67 variant, 5′-[…]-3′) (SEQ ID NO. 3) that binds both Stat1 and Stat3 (Garcia, R. et al. (1997); Wagner B. J. et al. (1990)) and MGFe (mammary gland factor element from the bovine β-casein gene promoter, 5′-[…]-3′) (SEQ ID NO. 4) that binds Stat1 and Stat5 (Gouilleux, F. et al. (1995); Seidel, H. M. et al. (1995)).
(§2) Peptidomimetics of the invention can be prepared by replacing prolyl or alanyl residue at the peptide bond that is N-terminal to the phosphotyrosine (Y*) of a peptide such as PY*L or AY*L with an organic substituent such as an optionally substituted aryl or heteroaryl group. The activities of STATs were measured in nuclear extracts (prepared from epidermal growth factor (EGF)-stimulated fibroblasts) as DNA-bound protein complexes by electrophoretic mobility shift assay (EMSA).
From densitometric analysis of band intensities, the IC50 values (concentration of peptidomimetic at which DNA-binding activity is reduced by 50%), which are reported in Table 3, were determined.
(A gel shift assay detects complexes by their altered migration in electrophoresis.)

For another test, the target named is T1, Stat1:Stat1 (Mus musculus, UniProt P42225).
T1 construct: nuclear extracts (prepared from epidermal growth factor (EGF)-stimulated fibroblasts); endogenous in cells; host or cells: NIH3T3 fibroblasts stimulated with EGF
T1 sequence (P42225 1-749): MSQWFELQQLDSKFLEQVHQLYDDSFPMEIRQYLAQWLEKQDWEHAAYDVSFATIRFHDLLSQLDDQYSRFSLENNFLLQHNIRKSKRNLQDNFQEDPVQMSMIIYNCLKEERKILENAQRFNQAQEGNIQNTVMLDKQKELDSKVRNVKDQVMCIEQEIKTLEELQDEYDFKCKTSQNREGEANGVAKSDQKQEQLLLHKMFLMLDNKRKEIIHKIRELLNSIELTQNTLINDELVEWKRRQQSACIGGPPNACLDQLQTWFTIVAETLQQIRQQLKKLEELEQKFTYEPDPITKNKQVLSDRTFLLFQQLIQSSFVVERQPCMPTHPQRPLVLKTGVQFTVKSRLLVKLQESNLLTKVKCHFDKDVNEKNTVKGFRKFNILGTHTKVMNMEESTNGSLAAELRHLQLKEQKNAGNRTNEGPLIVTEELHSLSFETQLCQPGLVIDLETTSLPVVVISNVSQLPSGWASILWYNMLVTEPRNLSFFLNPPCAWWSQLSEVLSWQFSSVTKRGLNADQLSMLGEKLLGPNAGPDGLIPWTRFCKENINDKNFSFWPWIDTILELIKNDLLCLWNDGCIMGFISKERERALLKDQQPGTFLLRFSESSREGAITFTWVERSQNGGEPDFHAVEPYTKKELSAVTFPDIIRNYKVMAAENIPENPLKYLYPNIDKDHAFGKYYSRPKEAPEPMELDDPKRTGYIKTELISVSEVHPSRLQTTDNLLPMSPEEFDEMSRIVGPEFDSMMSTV
Nature of the test: EMSA of Stat1:Stat1 DNA-binding in nuclear extracts. The class given is biochemical. Particulars: nuclear extracts pre-incubated 30 min, EMSA; mean and SD of at least 3 assays; read-out: IC50 values against STAT Dimers, Stat1:Stat1. As to the method: as §1
as §2, with “(EMSA). STAT-DNA complexes detected include Stat3:Stat3 homodimers (upper band), Stat1:Stat3 heterodimers (intermediate band) and Stat1:Stat1 homodimers (lower band) (FIG. 1A) when a ^32P-labeled hSIE oligonucleotide probe is used, or Stat5:Stat5 (upper band) and Stat1:Stat1 dimers (lower band) (FIG. 1B) when ^32P-labeled MGFe is used as a probe.” for “(EMSA).”

The next test deals with Stat5:Stat5. Nature of the test: EMSA of Stat5:Stat5 DNA-binding in nuclear extracts. It is filed as biochemical, mouse. The conditions noted are these: nuclear extracts pre-incubated 30 min, mean and SD of at least 3 assays, read-out: IC50 values against STAT Dimers, Stat5:Stat5. As to the method:
as §1
as §2, with “(EMSA). STAT-DNA complexes detected include Stat3:Stat3 homodimers (upper band), Stat1:Stat3 heterodimers (intermediate band) and Stat1:Stat1 homodimers (lower band) (FIG. 1A) when a ^32P-labeled hSIE oligonucleotide probe is used, or Stat5:Stat5 (upper band) and Stat1:Stat1 dimers (lower band) (FIG. 1B) when ^32P-labeled MGFe is used as a probe.” for “(EMSA).”

The target of another test is T2, Stat1:Stat3 (Mus musculus, UniProt P42227).
T2 construct: nuclear extracts (prepared from epidermal growth factor (EGF)-stimulated fibroblasts); endogenous in cells; host or cells: NIH3T3 fibroblasts stimulated with EGF
Nature of the test: EMSA of Stat1:Stat3 heterodimer DNA-binding in nuclear extracts (hSIE probe). It is filed as biochemical. The conditions noted are these: nuclear extracts pre-incubated 30 min, mean and SD of at least 3 assays, read-out: IC50 values against STAT Dimers, Stat1:Stat3. As to the method:
as §1, §2

Test [1] deals with Stat3:Stat3 homodimers (activated Stat3 in nuclear extracts of EGF-stimulated NIH3T3 fibroblasts) (mouse) (UniProt P42227). Nature of the test: cell-based or functional assay.
A further test concerns NIH3T3/v-Src. In words: Apo-BrdU labeling and flow cytometry for apoptotic cells. It is filed as cell-based, mouse. The conditions noted are these: NIH3T3/v-Src, 1 mM, 48 h, Apo-BrdU, flow cytometry. As to the method:
(§3) Cell proliferation, soft-agar growth and Apo-BrdU labeling studies. Proliferating fibroblasts and human tumor cells were counted by phase-contrast microscopy for viable cells (using tyrpan blue exclusion). Colony formation assays in six-well dishes and quantification of colonies by iodonitrotetrazolium violet have been previously described (Turkson, J. et al. (1999)). Treatment of cells with inhibitors was initiated 1 day after seeding cells by adding 75 μl of medium with or without inhibitor, and repeated every two to three days. Apoptosis was measured by Apo-BrdU labeling and following the supplier's (PharMingen; San Diego, Calif.) instructions.
(§4) Because one of the functions of Stat3 is to protect transformed or tumor cells from apoptosis (Catlett-Falcone, R. et al. (1999b); Epling-Burnette, P. K. et al. (2001); Grandis, J. R. et al. (2000); Bowman, T. et al. (2000b); Bromberg, J. F. et al. (1999)), the ability of peptidomimetics of the invention (and PY*LKTK-MTS for comparison) (SEQ ID NO. 1) to induce apoptosis in Stat3-dependent transformed fibroblasts was evaluated. Viral Src-transformed NIH3T3/v-Src fibroblasts were treated with or without compounds for 48 h. Treated cells were then labeled with Apo-BrdU (PharMingen; San Diego, Calif.) for detection of DNA breaks.

The next test deals with NIH3T3. The test is described as above. The class given is cell-based, mouse. Particulars: NIH3T3, 1 mM, 48 h, flow cytometry. As to the method: as §3, §4
[2] abbreviates: nuclear extracts pre-incubated 30 min, hSIE probe, EMSA, mean and SD of at least 3 assays, read-out: IC50, disruption of Stat3 DNA-binding activity.

Chain of Stat3 (P42227 whole entry): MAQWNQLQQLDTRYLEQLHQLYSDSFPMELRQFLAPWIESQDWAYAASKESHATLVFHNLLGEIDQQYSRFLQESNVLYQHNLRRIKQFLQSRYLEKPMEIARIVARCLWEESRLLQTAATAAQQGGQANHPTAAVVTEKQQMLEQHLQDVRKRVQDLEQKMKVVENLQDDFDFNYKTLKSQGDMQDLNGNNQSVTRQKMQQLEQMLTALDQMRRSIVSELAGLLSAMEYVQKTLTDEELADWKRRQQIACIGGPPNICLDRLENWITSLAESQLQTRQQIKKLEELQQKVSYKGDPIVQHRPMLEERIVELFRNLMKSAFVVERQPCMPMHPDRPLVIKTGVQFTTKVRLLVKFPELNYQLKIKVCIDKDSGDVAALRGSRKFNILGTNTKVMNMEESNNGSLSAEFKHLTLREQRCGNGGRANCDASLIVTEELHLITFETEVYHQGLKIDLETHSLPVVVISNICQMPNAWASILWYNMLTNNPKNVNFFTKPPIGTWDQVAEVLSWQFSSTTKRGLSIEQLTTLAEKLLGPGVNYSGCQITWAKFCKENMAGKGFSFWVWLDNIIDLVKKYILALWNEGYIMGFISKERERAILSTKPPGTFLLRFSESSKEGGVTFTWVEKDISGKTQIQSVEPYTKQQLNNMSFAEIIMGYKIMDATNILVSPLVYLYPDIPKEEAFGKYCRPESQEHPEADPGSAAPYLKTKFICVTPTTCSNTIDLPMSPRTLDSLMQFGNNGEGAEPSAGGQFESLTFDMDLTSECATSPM
T2 sequence (P42227 whole entry): as above

The term IC50 denotes the point on the concentration scale where inhibition reaches its midpoint. `CC(=O)NC(Cc1ccc(OP(=O)(O)O)cc1)C(=O)NC(CC(C)C)C(=O)O` (stereo not shown) [ISS230] (Ac-[pY]-Leu-OH; configuration not given here) returned an IC50 on Stat3 greater than 1000 µM.
On to `CC(C)CC(NC(=O)C(Cc1ccc(OP(=O)(O)O)cc1)NC(=O)C(C)C)C(=O)O` (stereo not shown) [ISS234] (Isobutyryl-[pY]-Leu-OH; configuration not given here), for which, at Stat3, the IC50 was greater than 1000 µM.
Consider `CC(C)CC(NC(=O)C(Cc1ccc(OP(=O)(O)O)cc1)NC(=O)c1cccnc1)C(=O)O` (stereo not shown) [ISS 219] (Nicotinoyl-[pY]-Leu-OH; configuration not given here), for which the IC50 at Stat3 (setting [2]) was found to be 232 µM.
Take `Cc1ncccc1C(=O)NC(Cc1ccc(OP(=O)(O)O)cc1)C(=O)NC(CC(C)C)C(=O)O` (stereo not shown) [ISS 221]: the IC50 on Stat3 (setting [2]) is 75 µM; on Stat1:Stat1, 310 µM; at Stat5:Stat5, 50 µM; on Stat1:Stat3 it was 455 µM. Further, on Stat3 (EMSA), the “effect on Stat3 DNA-binding activity in vitro (in words)” value is “potent disrupters of active Stat3”.
As for `Cc1ccc(C(=O)NC(Cc2ccc(OP(=O)(O)O)cc2)C(=O)NC(CC(C)C)C(=O)O)cn1` (stereo not shown) [ISS 223], the half-inhibitory concentration (IC50) at Stat3 was found to be 225 µM.
The compound `CC(C)CC(NC(=O)C(Cc1ccc(OP(=O)(O)O)cc1)NC(=O)c1cccc(N)c1)C(=O)O` (stereo not shown) [ISS 248] (H-[3Abz]-[pY]-Leu-OH; configuration not given here) showed an IC50 at Stat3 greater than 1000 µM.
At Stat3, `CC(C)CC(NC(=O)C(Cc1ccc(OP(=O)(O)O)cc1)NC(=O)c1ccc(N)nc1)C(=O)O` (stereo not shown) [ISS 249] showed an IC50 greater than 1000 µM.
For `CC(C)CC(NC(=O)C(Cc1ccc(OP(=O)(O)O)cc1)NC(=O)c1ccccc1N)C(=O)O` (stereo not shown) [ISS 265] (H-[2Abz]-[pY]-Leu-OH; configuration not given here), the IC50 at Stat3 (setting [2]) was greater than 1000 µM.
On Stat3, `CC(C)CC(NC(=O)C(Cc1ccc(OP(=O)(O)O)cc1)NC(=O)c1cccc2ccccc12)C(=O)O` (stereo not shown) [ISS 352] came in with an IC50 of 410 µM.
For the compound `CC(C)CC(NC(=O)C(Cc1ccc(OP(=O)(O)O)cc1)NC(=O)c1ccc2ccccc2c1)C(=O)O` (stereo not shown) [ISS 353], the IC50 on Stat3 (setting [2]) was found to be 650 µM.
`CC(C)CC(NC(=O)C(Cc1ccc(OP(=O)(O)O)cc1)NC(=O)c1ccc(-c2ccccc2)cc1)C(=O)O` (stereo not shown) [ISS 355] yielded an IC50 at Stat3 greater than 1000 µM.
`CC(C)CC(NC(=O)C(Cc1ccc(OP(=O)(O)O)cc1)NC(=O)c1ccccc1-c1ccccc1)C(=O)O` (stereo not shown) [ISS 360]: on Stat3, the IC50 worked out at 420 µM.
`CC(C)CC(NC(=O)C(Cc1ccc(OP(=O)(O)O)cc1)NC(=O)c1cnc2ccccc2c1)C(=O)O` (stereo not shown) [ISS 363] came in with a 50% inhibitory concentration (IC50) at Stat3 of 643 µM.
On Stat3, `CC(C)CC(NC(=O)C(Cc1ccc(OP(=O)(O)O)cc1)NC(=O)c1cc([N+](=O)[O-])ccc1F)C(=O)O` (stereo not shown) [ISS 375] showed an IC50 greater than 1000 µM.
Turning to `Cc1cnc(C(=O)NC(Cc2ccc(OP(=O)(O)O)cc2)C(=O)NC(CC(C)C)C(=O)O)cn1` (stereo not shown) [ISS 493], the “selectivity among Stat3, Stat1 and Stat5 (in words)” value at Stat3 is listed as “preferential suppression of Stat3 activity over those of Stat1 or Stat5”. In addition, the IC50 at Stat3 (setting [2]) came out at 38 µM; on Stat1:Stat1, 273 µM; on Stat5:Stat5, 300 µM; on Stat1:Stat3 it was 230 µM.
With `COc1cccc(OC)c1C(=O)NC(Cc1ccc(OP(=O)(O)O)cc1)C(=O)NC(CC(C)C)C(=O)O` (stereo not shown) [ISS 637], at Stat3, the “selectivity among Stat3, Stat1 and Stat5 (in words)” value is “preferential suppression of Stat3 activity over those of Stat1 or Stat5”. Also, the “increase in potency in inhibiting Stat3 DNA-binding activity compared to tripeptides PY*L or AY*L” value on Stat3 (in vitro, EMSA) stood at 5 fold. In addition, the IC50 worked out at 55 ± 35 µM on Stat3 (setting [2]), 255 µM at Stat1:Stat1, 695 µM on Stat5:Stat5 and 195 µM on Stat1:Stat3. The “effect on Stat3 DNA-binding activity in vitro (in words)” value on Stat3 (EMSA) is reported as “potent disrupters of active Stat3”.
As to Alanylphosphotyrosylleucine (peptide), the IC50, concentration at which Stat3 DNA-binding (EMSA, hSIE probe) is reduced by 50% in test [1] was found to be 217 µM.
Take “PYLKTK-AAVLLPVLLAAP (PYLKTKAAVLLPVLLAAP; membrane translocating sequence; murine) [PYLKTK-MTS]”: the “percent of apoptotic cells” value was found to be 0.4% in the test on NIH3T3/v-Src and 1.2% in the test with NIH3T3.
Prolylphosphotyrosylleucine (peptide) registered an IC50, concentration at which Stat3 DNA-binding (EMSA, hSIE probe) is reduced by 50% in test [1] of 182 µM.
